Here are results for 17 compounds from patent publication US20190322676A1, “CERAMIDE GALACTOSYLTRANSFERASE INHIBITORS FOR THE TREATMENT OF DISEASE” (BioMarin Pharmaceutical Inc., priority 2016, published 2019).

Counter-ions that a name gives are not always drawn.

What all share (format): biochemical
The target of assay [1] is T1, human CGT (ceramide galactosyltransferase), CHO/CGT lysate (Homo sapiens, UniProt Q16880).
T1 construct: Full-length human CGT cDNA was cloned into the BamH1/Xho1 site of pcDNA3.1 (+); expressed in transfected cells; host or cells: Chinese hamster ovary (CHO) cells; lysate prepared with M-PER
T1 sequence (Q16880 21-541): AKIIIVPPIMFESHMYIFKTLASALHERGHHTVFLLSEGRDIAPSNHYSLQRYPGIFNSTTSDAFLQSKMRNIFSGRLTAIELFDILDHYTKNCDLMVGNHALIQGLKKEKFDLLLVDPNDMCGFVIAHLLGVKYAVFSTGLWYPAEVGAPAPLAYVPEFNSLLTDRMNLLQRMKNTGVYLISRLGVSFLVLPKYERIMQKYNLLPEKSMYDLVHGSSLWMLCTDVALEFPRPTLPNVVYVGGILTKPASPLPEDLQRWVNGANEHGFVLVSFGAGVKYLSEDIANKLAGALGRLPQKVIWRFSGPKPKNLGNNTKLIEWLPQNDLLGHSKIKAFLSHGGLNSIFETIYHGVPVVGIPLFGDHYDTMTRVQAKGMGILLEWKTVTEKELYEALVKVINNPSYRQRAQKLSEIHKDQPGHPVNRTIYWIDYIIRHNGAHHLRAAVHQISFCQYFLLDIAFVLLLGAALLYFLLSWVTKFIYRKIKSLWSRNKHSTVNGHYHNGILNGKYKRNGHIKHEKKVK
Kind of assay: CGT enzyme assay, LC-MS/MS readout (Table 1 ranges without asterisk). Particulars: LC-MS/MS method (range without asterisk). A digest of the protocol:
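Lysate of CHO cells transfected with full-length human CGT incubated 1 h at 37 °C with compound (0.001–50 μM) in HEPES pH 7.2 with 17.5 μM UDP-galactose and C12:0 (2R-OH) ceramide substrate, 0.5% DMSO, no Tween 80. Galactosylceramide product quantified by LC-MS/MS against C12 ceramide internal standard; IC50 calculated.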

Assay [2] has as its target T1, human CGT (ceramide galactosyltransferase), CHO/CGT lysate. Description: CGT enzyme assay, RapidFire/MS/MS readout (Table 1 ranges with one asterisk *). The note with it: RapidFire method (range with one asterisk *). A digest of the protocol:
(§1)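 Lysate (4 μg) of CHO cells transfected with full-length human CGT incubated 1 h at 37 °C with compound (0.001–50 μM) in pH 7.2 HEPES buffer with 10 μM C6-NBD-dihydro-ceramide, 17.5 μM UDP-galactose, Mg2+/Mn2+, CHAPS, BSA, 0.5% DMSO; ** set also contained 0.01% Tween 80. Product quantified by RapidFire/MS/MS, normalized to internal standard; IC50 from sigmoidal variable-slope fits.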

Assay [3] has the same target. Description: CGT enzyme assay, RapidFire/MS/MS readout with 0.01% Tween added (Table 1 ranges with two asterisks **). Particulars: CGT enzyme assay, RapidFire/MS/MS method with 0.01% Tween added (range with two asterisks **). A digest of the protocol:
as §1

The term IC50 denotes the concentration that gives 50% inhibition. Take `CC(C)Oc1ccc2cc(S(=O)(=O)N[C@H](C(=O)N3C4CCC3CC(N)C4)C(F)(F)c3ccc(Br)cc3)ccc2c1` (stereo partly drawn) [Compound 1-1, N-((2R)-3-(3-amino-8-azabicyclo[3.2.1]octan-8-yl)-1-(4-bromophenyl)-1,1-difluoro-3-oxopropan-2-yl)-6-isopropoxynaphthalene-2-sulfonamide]: the 50% inhibitory concentration (IC50) in assay [1] and in assay [2] was 1 to 10 µM throughout.
For `NC1CC2CCC(C1)N2C(=O)[C@@H](NS(=O)(=O)c1ccc2cc(OC3CCCC3)ccc2c1)C(F)(F)c1ccc(Br)cc1` (stereo partly drawn) [Compound 5-1, N-((2R)-3-(3-amino-8-azabicyclo[3.2.1]octan-8-yl)-1-(4-bromophenyl)-1,1-difluoro-3-oxopropan-2-yl)-6-(cyclopentyloxy)naphthalene-2-sulfonamide], the half-maximal inhibitory concentration (IC50) in assay [1], in assay [3] and in assay [2] was below 1 µM each time.
With `CC(C)Oc1ccc2cc(S(=O)(=O)N[C@H](C(=O)N3C4CCC3CC(N)C4)C(F)(F)c3ccc(Cl)cc3)ccc2c1` (stereo partly drawn) [Compound 8-1, N-((2R)-3-(3-amino-8-azabicyclo[3.2.1]octan-8-yl)-1-(4-chlorophenyl)-1,1-difluoro-3-oxopropan-2-yl)-6-isopropoxynaphthalene-2-sulfonamide trifluoroacetate], the 50% inhibitory concentration (IC50) in assay [1] and in assay [2] was 1 to 10 µM in each case.
As for `CC(C)Oc1ccc2cc([C@@H](O)C(=O)N[C@@H](C(=O)N3C4CCC3CC(N)C4)C(F)(F)c3ccc(Br)cc3)ccc2c1` (stereo partly drawn) [Compound 19-4, (2R)—N-((2S)-3-(3-amino-8-azabicyclo[3.2.1]octan-8-yl)-1-(4-bromophenyl)-1,1-difluoro-3-oxopropan-2-yl)-2-hydroxy-2-(6-isopropoxynaphthalen-2-yl)acetamide trifluoroacetate], the 50% inhibitory concentration (IC50) in assay [1] and in assay [2] was 30 to 100 µM in each case.
Take `CCCCCCOc1ccc(S(=O)(=O)N[C@H](C(=O)N2C3CCC2CC(N)C3)C(F)(F)c2ccc(Br)cc2)cc1` (stereo partly drawn) [Compound 23-1, N-((2R)-3-(3-amino-8-azabicyclo[3.2.1]octan-8-yl)-1-(4-bromophenyl)-1,1-difluoro-3-oxopropan-2-yl)-4-(hexyloxy)benzenesulfonamide]: the IC50 in assay [1] lay in the range of 1 to 10 µM.
As to `CCCCCCOc1ccc(S(=O)(=O)N[C@@H](C(=O)N2C3CCC2CC(N)C3)C(F)(F)c2ccc(Br)cc2)cc1` (stereo partly drawn) [Compound 23-2, N-((2S)-3-(3-amino-8-azabicyclo[3.2.1]octan-8-yl)-1-(4-bromophenyl)-1,1-difluoro-3-oxopropan-2-yl)-4-(hexyloxy)benzenesulfonamide], the IC50 in assay [1] is 30 to 100 µM.
Same read-out and setting: in the case of `NC1CC2CCC(C1)N2C(=O)[C@@H](NS(=O)(=O)c1ccc2cc(OCc3ccccc3)ccc2c1)C(F)(F)c1ccc(Br)cc1` (stereo partly drawn) [Compound 24-1, N-((2R)-3-(3-amino-8-azabicyclo[3.2.1]octan-8-yl)-1-(4-bromophenyl)-1,1-difluoro-3-oxopropan-2-yl)-6-(benzyloxy)naphthalene-2-sulfonamide] it was 1 to 10 µM.
Turning to `NC1CC2CCC(C1)N2C(=O)[C@H](NS(=O)(=O)c1ccc2cc(OCc3ccccc3)ccc2c1)C(F)(F)c1ccc(Br)cc1` (stereo partly drawn) [Compound 24-2, N-((2S)-3-(3-amino-8-azabicyclo[3.2.1]octan-8-yl)-1-(4-bromophenyl)-1,1-difluoro-3-oxopropan-2-yl)-6-(benzyloxy)naphthalene-2-sulfonamide], the half-maximal inhibitory concentration (IC50) in assay [1] was in the range of 30 to 100 µM.
Same read-out and setting: for `NC1CC2CCC(C1)N2C(=O)[C@@H](NS(=O)(=O)c1ccc(Oc2ccc(F)cc2)cc1)C(F)(F)c1ccc(Br)cc1` (stereo partly drawn) [Compound 25-1, N-((2R)-3-(3-amino-8-azabicyclo[3.2.1]octan-8-yl)-1-(4-bromophenyl)-1,1-difluoro-3-oxopropan-2-yl)-4-(4-fluorophenoxy)benzenesulfonamide trifluoroacetate] the value was 1 to 10 µM; for `NC1CC2CCC(C1)N2C(=O)[C@H](NS(=O)(=O)c1ccc(Oc2ccc(F)cc2)cc1)C(F)(F)c1ccc(Br)cc1` (stereo partly drawn) [Compound 25-2, N-((2S)-3-(3-amino-8-azabicyclo[3.2.1]octan-8-yl)-1-(4-bromophenyl)-1,1-difluoro-3-oxopropan-2-yl)-4-(4-fluorophenoxy) benzenesulfonamide trifluoroacetate], 30 to 100 µM.
Take `NC1CC2CCC(C1)N2C(=O)[C@@H](NS(=O)(=O)c1ccc(OCCC2CCCCC2)cc1)C(F)(F)c1ccc(Br)cc1` (stereo partly drawn) [Compound 26-1, N-((2R)-3-(3-amino-8-azabicyclo[3.2.1]octan-8-yl)-1-(4-bromophenyl)-1,1-difluoro-3-oxopropan-2-yl)-4-(2-cyclohexylethoxy)benzenesulfonamide trifluoroacetate]: the IC50 in assay [1] was in the range of 1 to 10 µM.
On the same count and under the same terms, for `NC1CC2CCC(C1)N2C(=O)[C@H](NS(=O)(=O)c1ccc(OCCC2CCCCC2)cc1)C(F)(F)c1ccc(Br)cc1` (stereo partly drawn) [Compound 26-2, N-((2S)-3-(3-amino-8-azabicyclo[3.2.1]octan-8-yl)-1-(4-bromophenyl)-1,1-difluoro-3-oxopropan-2-yl)-4-(2-cyclohexylethoxy)benzenesulfonamide trifluoroacetate] the value was 30 to 100 µM.
In assay [1], `CC(C)Oc1ccc2cc(S(=O)(=O)N[C@H](C(=O)N3CCC(N)CC3)C(F)(F)c3ccc(Br)cc3)ccc2c1` [Compound 27-1, (R)—N-(3-(4-aminopiperidin-1-yl)-1-(4-bromophenyl)-1,1-difluoro-3-oxopropan-2-yl)-6-isopropoxynaphthalene-2-sulfonamide trifluoroacetate] had an IC50 of 1 to 10 µM.
`CC(C)Oc1ccc2cc(S(=O)(=O)N[C@@H](C(=O)N3CCC(N)CC3)C(F)(F)c3ccc(Br)cc3)ccc2c1` [Compound 27-2, (S)—N-(3-(4-aminopiperidin-1-yl)-1-(4-bromophenyl)-1,1-difluoro-3-oxopropan-2-yl)-6-isopropoxynaphthalene-2-sulfonamide trifluoroacetate]: the IC50 in assay [1] was in the range of 10 to 30 µM.
On the same count and under the same terms, for `CC(C)Oc1ccc2cc(S(=O)(=O)N[C@H](C(=O)N3CCC(N)CC3)C(F)(F)c3ccc(Br)cc3)ccc2c1Br` [Compound 119-1, (R)—N-(3-(4-aminopiperidin-1-yl)-1-(4-bromophenyl)-1,1-difluoro-3-oxopropan-2-yl)-5-bromo-6-isopropoxynaphthalene-2-sulfonamide] the value was 1 to 10 µM; for `CC(C)Oc1ccc2cc(S(=O)(=O)N[C@@H](C(=O)N3CCC(N)CC3)C(F)(F)c3ccc(Br)cc3)ccc2c1Br` [Compound 119-2, (S)—N-(3-(4-aminopiperidin-1-yl)-1-(4-bromophenyl)-1,1-difluoro-3-oxopropan-2-yl)-5-bromo-6-isopropoxynaphthalene-2-sulfonamide], 10 to 30 µM.
The compound `NC1CC2CCC(C1)N2C(=O)C(NS(=O)(=O)c1ccc(-c2ccc(F)cc2)nc1)C(F)(F)c1ccc(Br)cc1` (stereo not shown) [Compound 199, N-(3-(3-amino-8-azabicyclo[3.2.1]octan-8-yl)-1-(4-bromophenyl)-1,1-difluoro-3-oxopropan-2-yl)-6-(4-fluorophenyl)pyridine-3-sulfonamide] yielded an IC50 in assay [1] of 30 to 100 µM.
